Experimental data published in US11873298B2, “Compounds and uses thereof” (JANSSEN PHARMACEUTICA NV, priority 2017, dated 2024).

Tests used:
SCD1 = biological target: T1, SCD1 (Homo sapiens, UniProt O00767); test: Growth inhibition of humanized yeast strain expressing SCD1 as sole desaturase; type: cell-based
T1 construct: host or cells: S. cerevisiae ole1Δ strain (W303 pdr1Δ pdr3Δ background), plasmid pRS316 with TDH3 promoter and CYC1 terminator
T1 sequence (O00767 1-359): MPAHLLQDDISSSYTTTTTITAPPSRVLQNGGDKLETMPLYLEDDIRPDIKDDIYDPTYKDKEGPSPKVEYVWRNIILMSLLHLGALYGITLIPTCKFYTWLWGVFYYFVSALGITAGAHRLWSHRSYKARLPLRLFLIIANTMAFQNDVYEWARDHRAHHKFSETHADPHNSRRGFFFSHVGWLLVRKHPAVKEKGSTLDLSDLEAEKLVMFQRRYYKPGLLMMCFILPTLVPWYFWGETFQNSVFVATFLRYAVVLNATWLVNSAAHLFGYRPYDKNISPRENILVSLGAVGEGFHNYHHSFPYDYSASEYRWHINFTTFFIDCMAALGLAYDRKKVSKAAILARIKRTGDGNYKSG
In short: (§1)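 Measured by optical density at 600 nm, growth of desaturase-dependent yeast (OLE1 deleted; human SCD1, human SCD5 or yeast Ole1 supplied from plasmid) was scored after 24 h (Ole1) or 40 h (SCD1, SCD5) at 30° C. in galactose media lacking uracil with DMSO-delivered compound.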

SCD5 = biological target: T2, SCD5 (Homo sapiens, UniProt Q86SK9); test: Growth inhibition of humanized yeast strain expressing SCD5 as sole desaturase; type: cell-based
T2 construct: host or cells: S. cerevisiae ole1Δ strain (W303 pdr1Δ pdr3Δ background), plasmid pRS316 with TDH3 promoter and CYC1 terminator
T2 sequence (Q86SK9 1-330): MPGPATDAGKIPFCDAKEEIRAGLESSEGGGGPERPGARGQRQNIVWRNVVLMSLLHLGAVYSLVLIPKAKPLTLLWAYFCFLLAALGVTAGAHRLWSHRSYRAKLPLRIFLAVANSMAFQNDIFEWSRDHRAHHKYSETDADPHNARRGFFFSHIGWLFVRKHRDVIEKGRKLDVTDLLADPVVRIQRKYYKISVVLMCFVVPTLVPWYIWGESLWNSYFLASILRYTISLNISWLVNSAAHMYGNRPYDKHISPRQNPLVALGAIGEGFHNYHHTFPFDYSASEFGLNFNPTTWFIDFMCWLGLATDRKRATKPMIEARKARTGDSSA
In short: as §1

[1] = humanized yeast strain expressing SCD1
[2] = humanized yeast strain expressing SCD5
[3] = growth inhibition of humanized yeast strain expressing human SCD1
[4] = growth inhibition of humanized yeast strain expressing human SCD5

SMILES	IC50 (SCD1; humanized yeast strain, 40 h)	IC50 (SCD5; humanized yeast strain, 40 h)	also measured
CCOC(=O)N1CCC(c2nc(-c3ccc4cnn(C(C)C)c4c3)no2)CC1 [Compound 361]			SCD1 % Max Inhibition (SCD1; [1]): 67.22%; IC50 (SCD5; [2]): > 45 µM; SCD5 % Max Inhibition (SCD5; [2]): 0.95%
CNC(=O)O[C@H]1CC[C@H](c2nc(-c3ccc4c(C)nn(C)c4c3)no2)CC1 [Compound 609]			IC50 (SCD1; [3]): > 45 µM; IC50 (SCD5; [4]): > 45 µM
COC(=O)N1CCC(c2noc(-c3ccc4cnn(C5COC5)c4c3F)n2)CC1 [Compound 1004]	> 45 µM	0.297 µM	
CC(C)(C)OC(=O)N1C[C@@H]2[C@H](C1)[C@H]2C(=O)NCc1ccc2[nH]ncc2c1 [Compound 794]	> 45 µM	> 45 µM	
CC(C)(C)OC(=O)N1CCC(c2noc(-c3ccc(N4CCOCC4)cc3)n2)CC1 [Compound 1150]	> 45 µM	> 45 µM	
CC(C)n1ncc2ccc(-c3noc(C4CCN(C(C)C(F)(F)F)CC4)n3)cc21 (stereo not drawn) [Compound 1051]	> 45 µM	7.5 µM	
CC(C)n1cc2c(n1)CN(c1noc(C3CCN(C(=O)OC(C)(C)C)CC3)n1)CC2 [Compound 868]	> 45 µM	0.967 µM	
COC(=O)N1CCC(c2nc(-c3ccnc(C(O)C(C)C)c3)no2)CC1 (stereo not drawn) [Compound 856]	> 45 µM	> 45 µM	
CC(C)n1ncc2ccc(-c3nc(N4CCN(C(=O)OC5(C)CC5)CC4)no3)cc21 [Compound 682]			IC50 (SCD1; [3]): > 45 µM; IC50 (SCD5; [4]): 0.01 µM
Cc1nn(C)c2cc(-c3noc(C4CCN(c5nc6ccccc6o5)CC4)n3)ccc12 [Compound 514]			IC50 (SCD1; [1]): > 45 µM; IC50 (SCD5; [2]): > 45 µM
C[C@@H]1CN(c2noc(-c3ccc4cnn(C5COC5)c4c3)n2)CCN1C(=O)OC(C)(C)C [Compound 959]	> 45 µM	> 45 µM	
Cc1nn(C)c2cc(-c3noc(N4CCN(C(=O)OC5(C)CC5)CC4)n3)ccc12 [Compound 613]			IC50 (SCD1; [3]): > 45 µM; IC50 (SCD5; [4]): > 45 µM
CC(C)n1ncc2ccc(-c3noc([C@H]4CC[C@@H](O)CC4)n3)cc21 [Compound 654]			IC50 (SCD1; [3]): > 45 µM; IC50 (SCD5; [4]): > 45 µM
COC(=O)N1CCN(c2noc(-c3ccnc(OC4COC4)c3)n2)CC1 [Compound 1002]	> 45 µM	5.05 µM	
CC(C)n1ncc2ccc(-c3nc(N4CCC5(CCO5)CC4)no3)cc21 [Compound 762]	> 45 µM	5.25 µM	
Cn1cc(-c2cc(-c3nc(C4CCN(C(=O)OC(C)(C)C)CC4)no3)ccn2)cn1 [Compound 1182]	0.83 µM	0.72 µM	
COC(=O)N1CCC(c2noc(-c3ccc4cnn(C(C)C)c4c3)n2)CC1 [Compound 629]			IC50 (SCD1; [3]): > 45 µM; IC50 (SCD5; [4]): 0.03 µM
CC(C)(C)OC(=O)N1CC=C(c2nc(-c3ccc4cnn(C5COC5)c4c3)ns2)CC1 [Compound 633]			IC50 (SCD1; [3]): > 45 µM; IC50 (SCD5; [4]): 0.214 µM
CC(C)C(=O)N1CCC(c2noc(-c3ccc4oc(=O)n(C5COC5)c4c3)n2)CC1 [Compound 1126]	> 45 µM	2.74 µM	
COC(=O)N1CCC(c2noc(-c3ccc4cn(C5COC(C)(C)C5)nc4c3)n2)CC1 (stereo not drawn) [Compound 1095]	> 45 µM	11.1 µM	
COC(=O)N1CCN(c2nc(-c3ccc4cnn(C5COC5)c4c3)no2)CC1 [Compound 636]			IC50 (SCD1; [3]): > 45 µM; IC50 (SCD5; [4]): 1.8 µM
CO[C@H]1C[C@@H](n2ncc3ccc(-c4noc(C5CCN(C(=O)OC(C)(C)C)CC5)n4)cc32)C1 [Compound 867]	> 45 µM	1.92 µM	
CC(C)C(=O)N1CCC(c2noc(-c3ccnc(N4CCC(F)(F)C4)c3)n2)CC1 [Compound 1170]	> 45 µM	0.402 µM	
CC(C)(C)OC(=O)N1CCC(c2noc(-c3ccc(=O)n(C4CCOC4)c3)n2)CC1 (stereo not drawn) [Compound 1114]	> 45 µM	0.116 µM	
COC(=O)N1CCC(c2noc(-c3ccc4cnn(C5CS(=O)(=O)C5)c4c3)n2)CC1 [Compound 1000]	> 45 µM	0.65 µM	
O=C(c1ccccc1F)N1CCN(c2noc(-c3ccc4cnn(C5CNC5)c4c3)n2)CC1 [Compound 957]	27.9 µM	0.01 µM	
O=C(N1CCN(c2noc(-c3ccnc(NC4COC4)c3)n2)CC1)C1(F)CC1 [Compound 1148]	> 45 µM	19.4 µM	
CC(C)C(=O)N1CCC(c2noc(-c3ccnc(-c4cnn(C)c4)c3)n2)CC1 [Compound 1187]	> 45 µM	> 45 µM	
